Data on 25 compounds can be found in patent publication EP0761658A1, “Azole-phenyl urea derivatives as ACAT inhibitors and their production” (NIHON NOHYAKU CO., LTD., priority 1995, dated 1997).

In test [1] the test system is acyl-CoA:cholesterol acyltransferase (ACAT). In words: Inhibitory activity on acyl-CoA:cholesterol acyltransferase (ACAT), microsomal fraction of intestinal mucosa, [1-14C]oleyl-CoA incorporation into cholesterol esters. The format is biochemical, white rabbit. Particulars: rabbit intestinal mucosa microsomes. The procedure:
The enzyme used in the test was prepared according to the method of Heider et al. [J. Lipid Res. 24, 1127 (1983)]. A white rabbit was killed by blood-letting under anesthesia, after which its intestinal mucosa was collected and then homogenized, and microsomal fraction was obtained by stepwise centrifugation. The microsomal fraction was suspended in 0.154 M phosphate buffer (pH 7.4) and stored at -80°C until use.
ACAT activity was determined by a modification of the method of Helgerud et al. [J. Lipid Res. 22, 271 (1981)] by measuring radioactivity incorporated into cholesterol esters from [1-^14C]oleyl-CoA, as an indication. As to the ACAT-inhibitory activity of each compound to be tested, the inhibition rate was calculated by the following equation. Inhibition rate (%) =([ACAT activity of control group which was given solvent]-[ACAT activity of group treated with compound to be tested])/([ACAT activity of control group which was given solvent])x 100 [formula]

The subject of test [2] is rats fed on a high-cholesterol diet. In words: Serum cholesterol lowering activity in rats fed on a high-cholesterol diet. It counts as in vivo, Male Sprague-Dawley rats. Particulars: Rattus norvegicus, 96 h; total serum cholesterol; 30 mg per kg of body weight per day for 4 days, suspended in 0.5% carboxymethyl cellulose; blood 24 hours after last administration; read-out: Reduction rate (%). On the procedure: Male Sprague-Dawley rats of 6-week-old were divided into three groups. The first group (normal group) was fed an ordinary diet for 4 days. The second group (control group) was fed a high cholesterol diet (containing 1.0% cholesterol, 1.0% cholic acid and 8.5% coconut oil) for 4 days. The third group (treated group) was fed a high cholesterol diet and was treated with a compound for 4 days.
Simultaneously with the beginning of the above feeding, the compound was suspended in a 0.5% carboxymethyl cellulose solution and administered to the treated group, in a dose of 30 mg (in terms of the compound) per kg of body weight per day for 4 days. A 0.5% carboxymethyl cellulose solution was also administered to the normal group and the control group in the same manner as above.
After 24 hours of the last administration, blood was collected and the cholesterol concentration in serum was measured by an enzymatic method. The reduction rate of the total serum cholesterol concentration was calculated from values obtained for the three groups by the following equation. Choresterol reduction rate (%) =((A) - (B))/((A) - (C))x 100 [formula] wherein A: the serum cholesterol concentration of the control group. B: the serum cholesterol concentration of the treated group. C: the serum cholesterol concentration of the normal group.

Setting [3] is: compound concentration 1 (head prints '1 | 0.01 µm').

For the compound `CC(C)c1cccc(C(C)C)c1NC(=O)Nc1sc(-c2ccccc2)nc1-c1ccccc1Cl` [Compound 1, N-[4-(2-Chlorophenyl)-2-phenylthiazol-5-yl]-N'-(2,6-diisopropylphenyl)urea], the Inhibition rate % in test [1] (compound concentration 0.01 µm) stood at 38.7%; in test [1] (setting [3]), 99.9%. For the same compound, in test [2], the inhibition in vivo at 30 mg/kg came to 53.8%.

Consider `Cc1ccccc1-c1nc(-c2ccccc2)sc1NC(=O)Nc1c(C(C)C)cccc1C(C)C` [Compound 2, N-(2,6-Diisopropylphenyl)-N'-[4-(2-methylphenyl)-2-phenylthiazol-5-yl]urea], for which the results for the Inhibition rate % in test [1] (compound concentration 0.01 µm) and in test [1] (setting [3]) were 55.2% and 99.8%, respectively. In addition, the inhibition in vivo at 30 mg/kg in test [2] amounted to 85.7%. In test [1] (setting [3]), `Cc1nc(-c2ccccc2)c(NC(=O)Nc2c(C(C)C)cccc2C(C)C)s1` [Compound 3, N-(2,6-Diisopropylphenyl)-N'-(2-methyl-4-phenylthiazol-5-yl)urea] had an Inhibition rate % of 92.1%. In test [1] (compound concentration 0.01 µm), `Cc1nc(-c2ccccc2Cl)c(NC(=O)Nc2c(C(C)C)cccc2C(C)C)s1` [Compound 4, N-[4-(2-Chlorophenyl)-2-methylthiazol-5-yl]-N'-(2,6-diisopropylphenyl)urea] displayed an Inhibition rate % of 63.9%. In turn, `CCc1cccc(CC)c1NC(=O)Nc1sc(C)nc1-c1ccccc1Cl` [Compound 5, N-[4-(2-Chlorophenyl)-2-methylthiazol-5-yl]-N'-(2,6-diethylphenyl)urea] yielded an Inhibition rate % in test [1] (setting [3]) of 97.8%. Same read-out and setting: the figure for `Cc1nc(-c2ccccc2Cl)c(NC(=O)Nc2ccc(F)cc2F)s1` [Compound 6, N-[4-(2-Chlorophenyl)-2-methylthiazol-5-yl]-N'-(2,4-difluorophenyl)urea] is 46.1%. Consider `Cc1nc(-c2ccccc2C)c(NC(=O)Nc2c(C(C)C)cccc2C(C)C)s1` [Compound 8, N-(2,6-DiisopropylphenyI)-N'-[2-methyl-4-(2-methylphenyl)thiazol-5-yl]urea], for which the Inhibition rate % in test [1] (setting [3]) is 99.1%. `Cc1nc(-c2ccccc2C)c(NC(=O)Nc2ccc(F)cc2F)s1` [Compound 9, N-(2,4-Difluorophenyl)-N'-[2-methyl-4-(2-methylphenyl)thiazol-5-yl]urea]: the Inhibition rate % in test [1] (setting [3]) worked out at 49.4%.

As for `CCc1nc(-c2ccccc2Cl)c(NC(=O)Nc2c(C(C)C)cccc2C(C)C)s1` [Compound 11, N-[4-(2-Chlorophenyl)-2-ethylthiazol-5-yl]-N'-(2,6-diisopropylphenyl)urea], the results for the Inhibition rate % in test [1] (compound concentration 0.01 µm) and in test [1] (setting [3]) were 42.9% and 99.2%, respectively. In test [2], the inhibition in vivo at 30 mg/kg was 46.2%. In turn, `CCCCCc1nc(-c2ccccc2Cl)c(NC(=O)Nc2c(C(C)C)cccc2C(C)C)s1` [Compound 12, N-[4-(2-Chlorophenyl)-2-n-pentylthiazol-5-yl]-N'-(2,6-diisopropylphenyl)urea] returned an Inhibition rate % in test [1] (setting [3]) of 96.2%.

`CC(C)c1cccc(C(C)C)c1NC(=O)Nc1sc(C2CCCCC2)nc1-c1ccccc1Cl` [Compound 13, N-[4-(2-Chlorophenyl)-2-cyclohexylthiazol-5-yl]-N'-(2,6-diisopropylphenyl)urea]: the Inhibition rate % in test [1] (setting [3]) is on record as 72.7%. The compound `CC(C)c1cccc(C(C)C)c1NC(=O)Nc1sc(N(C)C)nc1-c1ccccc1Cl` [Compound 15, N-[4-(2-Chlorophenyl)-2-dimethylaminothiazol-5-yl]-N'-(2,6-diisopropylphenyl)urea] came in with an Inhibition rate % in test [1] (setting [3]) of 99.2%. `CCc1cccc(CC)c1NC(=O)Nc1sc(N2CCCCC2)nc1-c1ccccc1` [Compound 17, N-(2,6-Diethylphenyl)-N'-[4-phenyl-2-(N-piperidino)thiazol-5-yl)urea] showed an Inhibition rate % in test [1] (setting [3]) of 99.8%. Same read-out and setting: next, `CC(C)c1cccc(C(C)C)c1NC(=O)Nc1sc(N2CCCCC2)nc1-c1ccccc1Cl` [Compound 19, N-[4-(2-Chlorophenyl)-2-(N-piperidino)thiazol-5-yl]-N'-(2,6-diisopropylphenyl)urea]: 99.9%; `CC(C)c1cccc(C(C)C)c1NC(=O)Nc1sc(N2CCOCC2)nc1-c1ccccc1Cl` [Compound 21, N-[4-(2-Chlorophenyl)-2-(N-morpholino)thiazol-5-yl]-N'-(2,6-diisopropylphenyl)urea]: 99.8%.

Regarding `CC(C)c1cccc(C(C)C)c1NC(=O)Nc1nc(-c2ccccc2)sc1-c1ccccc1Cl` [Compound 23, N-[5-(2-Chlorophenyl)-2-phenylthiazol-4-yl]-N'-(2,6-diisopropylphenyl)urea], the Inhibition rate % turned out to be 59.4% in test [1] (compound concentration 0.01 µm) and 99.6% in test [1] (setting [3]). The inhibition in vivo at 30 mg/kg in test [2] is 108%. `CC(C)c1cccc(C(C)C)c1NC(=O)Nc1nc(N2CCOCC2)sc1-c1ccccc1Cl` [Compound 24, N-[5-(2-Chlorophenyl)-2-(N-morpholino)thiazol-4-yl]-N'-(2,6-diisopropylphenyl)urea] came in with an Inhibition rate % in test [1] (setting [3]) of 97.9%.

In turn, `Cc1nc(NC(=O)Nc2c(C(C)C)cccc2C(C)C)c(-c2ccccc2Cl)s1` [Compound 25, N-[5-(2-Chlorophenyl)-2-methylthiazol-4-yl]-N'-(2,6-diisopropylphenyl)urea] displayed an Inhibition rate % in test [1] (compound concentration 0.01 µm) of 88.1%. For the same compound, the inhibition in vivo at 30 mg/kg in test [2] is 39.1%. The compound `CCc1cccc(CC)c1NC(=O)Nc1nc(C)sc1-c1ccccc1Cl` [Compound 26, N-[5-(2-Chlorophenyl)-2-methylthiazol-4-yl]-N'-(2,6-diethylphenyl)urea] returned an Inhibition rate % in test [1] (compound concentration 0.01 µm) of 51.4%. For the compound `CC(C)c1cccc(C(C)C)c1NC(=O)Nc1nc(-c2ccccc2)n(C)c1-c1ccccc1Cl` [Compound 35, N-[5-(2-Chlorophenyl)-1-methyl-2-phenylimidazol-4-yl]-N'-(2,6-diisopropylphenyl)urea], the figures for the Inhibition rate % in test [1] (compound concentration 0.01 µm) and in test [1] (setting [3]) were 33.5% and 99.6%, respectively. In test [1] (setting [3]), `CC(C)c1cccc(C(C)C)c1NC(=O)Nc1c(-c2ccccc2Cl)nc(-c2ccccc2)n1Cc1ccccc1` [Compound 36, N-[1-Benzyl-4-(2-chlorophenyl)-2-phenylimidazol-5-yl]-N'-(2,6-diisopropylphenyl)urea] displayed an Inhibition rate % of 79.5%. In test [1] (setting [3]), `CC(C)c1cccc(C(C)C)c1NC(=O)Nc1nc(-c2ccccc2)n(COCC[Si](C)(C)C)c1-c1ccccc1Cl` [Compound 40, N-[5-(2-Chlorophenyl)-2-phenyl-1-(2-trimethylsilyl)ethoxymethylimidazol-4-yl]-N'-(2,6-diisopropylphenyl)urea] showed an Inhibition rate % of 99.4%.

In turn, `COCn1c(-c2ccccc2)nc(NC(=O)Nc2c(C(C)C)cccc2C(C)C)c1-c1ccccc1Cl` [Compound 42, N-[5-(2-Chlorophenyl)-1-methoxymethyl-2-phenylimidazol-4-yl]-N'-(2,6-diisopropylphenyl)urea] had an Inhibition rate % in test [1] (setting [3]) of 99.2%.

With `COc1ccc(Cn2c(-c3ccccc3)nc(NC(=O)Nc3c(C(C)C)cccc3C(C)C)c2-c2ccccc2Cl)cc1` [Compound 44, N-[5-(2-Chlorophenyl)-1-(4-methoxybenzyl)-2-phenylimidazol-4-yl]-N'-(2,6-diisopropylphenyl)urea], the Inhibition rate % in test [1] (setting [3]) was found to be 99.2%.

In the case of `CC(C)c1cccc(C(C)C)c1NC(=O)Nc1nc(-c2ccccc2)[nH]c1-c1ccccc1Cl` [Compound 45, N-[4(5)-(2-Chlorophenyl)-2-phenylimidazol-5(4)-yl]-N'-(2,6-diisopropylphenyl)urea], the Inhibition rate % in test [1] (setting [3]) was found to be 77.9%.
